The format of the series is physicochemical. As to conditions: pH 4; for Remaining: buffer. Here is the method:
0.05 M citrate buffer with a pH of 4.0 at 20.3° C. was prepared. To this buffer were added 5.35 mM theanine and 2.675 mM of the theanine dimer. The resulting solution was held at 92° C. for two weeks with small samples being taken regularly for analysis with HPLC.

Consider 2 compounds from patent US20080009505A1, “Theanine derivatives, uses thereof and processes for the manufacture thereof” (Conopco Inc. d/b/a UNILEVER, priority 2006, published 2008).

Like-named read-outs stand apart in the source and are kept apart here.

`CCNC(=O)CCC1NC(=O)C(CCC(=O)NCC)NC1=O` (stereo not drawn) [Theanine Dimer, N-ethyl-3-[5-(2-ethylcarbamoyl-ethyl)-3,6-dioxo-piperazin-2-yl]-propionamide]: the “Stability compared with theanine” value is recorded as “much more stable than theanine”. Besides, the Remaining (0 h) is 2.68 mM. This compound gave a Remaining (2.5 h) of 2.75 mM. The same compound showed a Remaining (17.5 h) of 2.80 mM. The compound also gave a Remaining (26.3 h) of 2.78 mM. The compound also returned a Remaining (42 h) of 2.99 mM. This compound also gave a Remaining (50 h) of 3.31 mM. Besides, the Remaining (121.3 h) was determined as 3.36 mM. For the same compound, for the setting “137.3 h”, the Remaining came to 3.38 mM. For the same compound, the Remaining (145.8 h) amounted to 3.51 mM. The compound also returned a Remaining (161.6 h) of 3.54 mM. Moreover, the Remaining (170.2 h) amounted to 3.59 mM. This compound showed a Remaining (185.8 h) of 3.63 mM. In addition, the Remaining (193.3 h) amounted to 3.80 mM.
Take `CCNC(=O)CCC(N)C(=O)O` (stereo not drawn) [Theanine, N-gamma-ethyl glutamine]: the Remaining reads like this: (0 h) 5.35 mM; (2.5 h) 4.83 mM; (17.5 h) 2.54 mM; (26.3 h) 1.83 mM; (42 h) 0.81 mM; (50 h) 0.05 mM. This compound also displayed a Remaining (121.3 h) of 0.04 mM; a Remaining (137.3 h) of 0.03 mM; a Remaining (145.8 h) of 0.02 mM; a Remaining (161.6 h) of 0.01 mM; a Remaining (170.2 h) of 0.01 mM; a Remaining (185.8 h) of 0.01 mM. This compound displayed a Remaining (193.3 h) of 0.01 mM.
